Legend:
hERG potassium channel = target: T1, hERG potassium channel (Homo sapiens, UniProt Q12809); experiment: hERG screening assay (PatchXpress patch clamp, CHO cells); assay type: cell-based; conditions: CHO cells expressing hERG
T1 construct: expressed in transfected cells; host or cells: CHO (Chinese Hamster Ovary)
Description: Compounds were screened to test their activity in blocking the hERG potassium channel. The hERG channel is heterologously expressed in a CHO (Chinese Hamster Ovary) cell line. Cells were maintained with standard tissue culture procedures and stable channel expression was maintained with 500 μg/ml G418 in the culture medium. Cells were harvested for testing on the PatchXpress automated patch clamp with Accumax (Innovative Cell Technologies, San Diego, Calif.) to isolate single cells.
The following solutions were used for electrophysiological recordings. The external solution contained: 2 mM CaCl2; 2 mM MgCl2; 4 mM KCl; 150 mM NaCl; 10 mM Glucose; 10 mM HEPES (pH 7.4 with 1M NaOH, osmolarity). The internal solution contained: 140 mM KCl, 10 mM MgCl2, 6 mM EGTA, 5 mM HEPES, 5 mM ATP (pH adjusted to 7.25 with KOH).
hERG channels were activated when the voltage was stepped to +20 mV from the −80 mV holding potential. During a 5 second step at +20 mV, the channels activated and then largely inactivated, so the currents were relatively small. Upon returning to −50 mV from +20 mV, hERG currents transiently became much larger as inactivation was rapidly removed and then the channel closed. The first step to −50 mV for 300 ms was used as a baseline for measuring the peak amplitude during the step to −50 mV after channel activation. The peak current at −50 mV was measured both under control conditions and after addition of compound.
All compounds were prepared as 10 mM DMSO stocks in glass vials. Stock solutions were mixed by vigorous vortexing and sonication for about 2 minutes at room temperature. For testing, compounds were diluted in glass vials using an intermediate dilution step in pure DMSO and then further diluted to working concentrations in external solution. Dilutions were prepared no longer than 20 minutes before use.
After achieving the whole-cell configuration, cells were monitored for 90 seconds to assess stability and washed with external solution for 66 seconds. The voltage protocol described above was then applied to the cells every 12 seconds and throughout the whole procedure. Only cells with stable recording parameters and meeting specified health criteria were allowed to enter the compound addition procedure.
External solution containing 0.1% DMSO (vehicle) was applied to the cells first to establish the control peak current amplitude. After allowing the current to stabilize for […], 1 μM and then 10 μM test compounds were applied. Each compound concentration was added 4 times and cells were kept in test solution until the effect of the compound reached steady state or for a maximum of 12 minutes. After addition of test compound, a positive control (1 μM Cisapride) was added, and must block >95% of the current for the experiment to be considered valid. Washout in the external solution compartment was performed until the recovery of the current reached steady state. Data was analyzed using DataXpress, Clampfit (Molecular Devices, Inc., Sunnyvale) and Origin 7 (Originlab Corp.)

[1] = target: T2, wild-type human cardiac sodium channel, hNav1.5 (Homo sapiens, UniProt Q14524); experiment: Late INa screening assay (PatchXpress whole cell patch clamp); assay type: cell-based; conditions: compound at 10 uM; HEK293 hNav1.5; late INa generated with Tefluthrin or ATX II; read-out: Late INa 10 uM (percent block of late INa)
T2 construct: host or cells: HEK293
Description: The late sodium current (Late INa) and peak sodium current (Peak INa) assays were performed on an automated electrophysiology platform, PatchXpress 7000A (MDS Analytical Technologies, Sunnyvale, Calif.), using the whole cell patch clamp technique to measure currents through the cell membrane of up to 16 cells at a time. The assay used an HEK293 (human embryonic kidney) cell line heterologously expressing the wild-type human cardiac sodium channel, hNav1.5, purchased from Millipore (Billerica, Mass.). No beta subunits were coexpressed with the Na channel alpha subunit. Cells were maintained with standard tissue culture procedures, and stable channel expression was maintained with 400 μg/ml Geneticin in the culture medium. Cells isolated for use on PatchXpress were incubated for 5 minutes in Versene 1× and then for 2 minutes in 0.0125% Trypsin-EDTA (both at 37° C.) to ensure that 80-90% of the cells are single and not part of a cell cluster. Experiments were carried out at 24-27° C.
For both the Late INa and Peak INa assays, series resistance compensation was set to 50% and whole-cell compensation was performed automatically. Currents were low-pass filtered at 10 kHz and digitized at 31.25 kHz. Currents through open sodium channels were automatically recorded and stored in the DataXpress2 database (MDS Analytical Technologies, Sunnyvale, Calif.). Analysis was performed using DataXpress2 analysis software and data are compiled in Excel.
Compound stocks were routinely made in glass vials to 10 mM in dimethyl sulfoxide (DMSO). In some cases, when compounds were not soluble in DMSO, they are made in 100% ethanol. Stocks were sonicated as necessary. The extracellular solution for screening Late INa was composed of: 140 mM NaCl, 4 mM KCl, 1.8 mM CaCl2, 0.75 mM MgCl2, and 5 mM HEPES with pH adjusted to 7.4 using NaOH. The extracellular solution for screening Peak INa was composed of: 20 mM NaCl, 120 mM N-methyl-D glucamine, 4 mM KCl, 1.8 mM CaCl2, 0.75 mM MgCl2, and 5 mM HEPES with pH adjusted to 7.4 using HCl. The intracellular solution used to perfuse the inside of the cells for both the Late INa and Peak INa assays contained: 120 mM CsF, 20 mM CsCl, 5 mM EGTA, 5 mM HEPES and pH adjusted to 7.4 with CsOH. Compounds were diluted in extracellular solution to […] in glass vials and then transferred to glass well plates before robotic addition to the cells. The 0Na extracellular solution used at the end of each experiment for the Late INa and Peak INa assays to measure baseline current contained: 140 mM N-methyl-D-glucamine; 4 mM KCl; 1.8 mM CaCl2; 0.75 mM MgCl2; 5 mM HEPES and pH was adjusted to 7.4 with HCl.
For the Late INa assay, sodium channels were activated every 10 seconds (0.1 Hz) by depolarizing the cell membrane to −20 mV for 250 milliseconds (ms) from a holding potential of −120 mV. In response to a −20 mV voltage step, typical Nav1.5 sodium currents activated rapidly to a peak negative current and then inactivated nearly completely within 3-4 ms.
All compounds were tested to determine their activity in blocking the late sodium current. Late INa current was generated by adding 10 μM Tefluthrin (pyrethroid) to the extracellular solution while recording Na currents. For some experiments, 50 nM ATX II (sea anemone toxin), another late INa activator, was used to generate the late component. Both activators generated late components that are large, and thus block of the late component by compounds could be measured easily. For the purposes of the screening, late INa is defined as the mean current between 225 ms and 250 ms after stepping to −20 mV to activate Na channels. After establishing the whole cell recording configuration, late INa activators were added to each well 4 times over a 16-17 minute period so that the late component of the Na current reached a stable value. Compounds were then added (typically at 10 μM), in the presence of late INa activator, with 3 additions over the course of 7 or 8 minutes. […]

T1 sequence (Q12809 whole entry): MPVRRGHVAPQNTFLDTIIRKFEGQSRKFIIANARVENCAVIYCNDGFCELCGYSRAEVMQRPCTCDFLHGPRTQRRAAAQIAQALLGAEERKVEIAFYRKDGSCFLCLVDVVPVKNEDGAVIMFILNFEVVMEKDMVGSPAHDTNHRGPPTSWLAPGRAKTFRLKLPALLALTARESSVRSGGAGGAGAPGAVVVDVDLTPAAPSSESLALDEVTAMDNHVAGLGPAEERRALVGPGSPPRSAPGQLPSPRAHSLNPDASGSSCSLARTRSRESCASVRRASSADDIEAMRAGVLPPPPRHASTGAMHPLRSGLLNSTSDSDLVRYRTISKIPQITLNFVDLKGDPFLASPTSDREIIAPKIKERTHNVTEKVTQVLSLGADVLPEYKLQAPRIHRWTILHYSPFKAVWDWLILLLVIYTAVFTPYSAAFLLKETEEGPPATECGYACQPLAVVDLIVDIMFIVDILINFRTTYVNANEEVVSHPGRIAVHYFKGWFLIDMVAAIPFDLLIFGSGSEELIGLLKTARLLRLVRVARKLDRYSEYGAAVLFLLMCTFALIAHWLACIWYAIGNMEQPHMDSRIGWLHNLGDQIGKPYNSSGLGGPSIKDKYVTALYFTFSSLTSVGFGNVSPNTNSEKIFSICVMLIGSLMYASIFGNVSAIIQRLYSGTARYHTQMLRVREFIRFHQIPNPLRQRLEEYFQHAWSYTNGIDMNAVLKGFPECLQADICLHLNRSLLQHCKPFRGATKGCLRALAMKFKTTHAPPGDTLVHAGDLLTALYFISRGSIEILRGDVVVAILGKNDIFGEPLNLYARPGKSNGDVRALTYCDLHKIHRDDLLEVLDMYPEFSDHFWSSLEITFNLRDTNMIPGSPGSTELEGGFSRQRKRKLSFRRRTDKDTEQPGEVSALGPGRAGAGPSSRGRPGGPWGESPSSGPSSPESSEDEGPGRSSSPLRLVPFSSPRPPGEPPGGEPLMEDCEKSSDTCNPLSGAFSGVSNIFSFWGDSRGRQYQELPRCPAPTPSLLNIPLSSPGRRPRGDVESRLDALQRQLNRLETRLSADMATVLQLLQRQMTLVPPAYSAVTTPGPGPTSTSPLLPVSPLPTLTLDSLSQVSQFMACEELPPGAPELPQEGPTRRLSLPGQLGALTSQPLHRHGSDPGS
T2 sequence (Q14524 whole entry): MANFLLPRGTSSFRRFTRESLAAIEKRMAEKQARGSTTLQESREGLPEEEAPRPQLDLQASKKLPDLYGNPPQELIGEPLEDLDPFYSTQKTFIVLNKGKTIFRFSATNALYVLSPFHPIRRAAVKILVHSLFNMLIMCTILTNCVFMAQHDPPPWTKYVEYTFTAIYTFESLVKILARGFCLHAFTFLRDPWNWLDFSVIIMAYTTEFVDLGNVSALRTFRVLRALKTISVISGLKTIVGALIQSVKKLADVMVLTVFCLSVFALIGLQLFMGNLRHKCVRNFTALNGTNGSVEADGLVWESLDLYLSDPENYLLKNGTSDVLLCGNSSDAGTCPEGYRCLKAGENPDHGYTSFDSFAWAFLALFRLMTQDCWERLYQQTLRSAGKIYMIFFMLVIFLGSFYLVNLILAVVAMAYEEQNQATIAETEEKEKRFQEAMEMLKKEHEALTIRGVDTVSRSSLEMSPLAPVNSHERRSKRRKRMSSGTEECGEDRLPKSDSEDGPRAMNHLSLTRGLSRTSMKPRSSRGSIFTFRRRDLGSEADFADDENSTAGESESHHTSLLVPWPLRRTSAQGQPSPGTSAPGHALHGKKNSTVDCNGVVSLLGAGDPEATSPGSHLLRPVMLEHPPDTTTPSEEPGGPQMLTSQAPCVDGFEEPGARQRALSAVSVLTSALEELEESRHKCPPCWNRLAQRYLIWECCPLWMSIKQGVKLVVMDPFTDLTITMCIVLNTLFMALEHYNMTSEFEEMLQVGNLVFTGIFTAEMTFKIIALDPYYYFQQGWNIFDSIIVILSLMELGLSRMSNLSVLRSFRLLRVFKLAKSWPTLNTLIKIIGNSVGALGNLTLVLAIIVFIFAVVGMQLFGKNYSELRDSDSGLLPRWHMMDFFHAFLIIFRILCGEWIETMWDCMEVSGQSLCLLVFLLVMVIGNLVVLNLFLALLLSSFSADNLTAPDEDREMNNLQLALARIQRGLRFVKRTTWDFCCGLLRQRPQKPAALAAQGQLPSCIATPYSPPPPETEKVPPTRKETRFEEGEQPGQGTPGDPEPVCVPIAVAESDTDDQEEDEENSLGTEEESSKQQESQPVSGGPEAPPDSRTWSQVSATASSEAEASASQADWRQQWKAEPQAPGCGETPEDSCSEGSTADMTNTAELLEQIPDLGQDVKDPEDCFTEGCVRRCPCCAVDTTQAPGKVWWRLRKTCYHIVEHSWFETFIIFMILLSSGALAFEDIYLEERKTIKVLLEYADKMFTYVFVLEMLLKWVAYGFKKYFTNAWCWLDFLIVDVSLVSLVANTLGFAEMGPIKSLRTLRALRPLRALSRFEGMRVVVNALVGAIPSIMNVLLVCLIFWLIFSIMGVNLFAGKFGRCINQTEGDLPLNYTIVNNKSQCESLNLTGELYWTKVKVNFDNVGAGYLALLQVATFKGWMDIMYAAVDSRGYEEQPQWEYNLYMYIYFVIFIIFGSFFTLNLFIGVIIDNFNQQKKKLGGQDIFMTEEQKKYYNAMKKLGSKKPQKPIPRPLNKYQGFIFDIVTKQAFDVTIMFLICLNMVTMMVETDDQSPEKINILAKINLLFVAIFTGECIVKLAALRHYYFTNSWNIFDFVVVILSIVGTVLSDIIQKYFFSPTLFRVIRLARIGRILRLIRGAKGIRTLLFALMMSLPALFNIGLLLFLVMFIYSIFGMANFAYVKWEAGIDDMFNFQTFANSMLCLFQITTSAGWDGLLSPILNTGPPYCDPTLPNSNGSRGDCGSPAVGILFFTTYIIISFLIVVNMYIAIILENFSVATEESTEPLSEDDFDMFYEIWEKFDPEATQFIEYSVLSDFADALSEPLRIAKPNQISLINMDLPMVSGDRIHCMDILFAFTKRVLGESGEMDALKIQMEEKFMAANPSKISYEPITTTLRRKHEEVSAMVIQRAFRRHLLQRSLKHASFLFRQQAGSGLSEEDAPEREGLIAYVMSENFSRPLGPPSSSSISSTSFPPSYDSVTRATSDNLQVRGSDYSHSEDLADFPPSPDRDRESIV

**Q.** What does the source list for `CCOC(=O)c1nc2ccc(-c3ccc(OC(F)(F)F)cc3)cc2n(C)c1=O` [ethyl 4-methyl-3-oxo-6-[4-(trifluoromethoxy)phenyl]-3,4-dihydroquinoxaline-2-carboxylate]?
**A.** HERG 1 uM (block of hERG current) (hERG potassium channel; compound at 1 uM): 34.0%; HERG 10 uM (block of hERG current) (hERG potassium channel; compound at 10 uM): 79.5%; inhibition at 10 µM [1]: 49.3%
